Test results: PubChem BioAssay AID330 (DTP/NCI, 2004)
Several values for one entry are separate records, joined by “and”; a condition that tells them apart may be missing. Equal entries are not always repeated. Toxic doses and inconclusive results are not listed. Rule for the calls: active = survival T/C of 150% or more; inactive = T/C below 125% in these data. Peptide text beside a SMILES is read from it. * marks the point of attachment. Cbz = O=C(OCc1ccccc1)*

Test system: P388 leukemia ip, CD2F1 mice, survival T/C
Test: NCI In Vivo Anticancer Drug Screen. Data for tumor model P388 Leukemia (intraperitoneal) in CD2F1 (CDF1) mice
Settings: endpoint: median survival time, higher = longer survival
Method in brief: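 Mice carrying the transplanted tumor received test compound or vehicle. Survival was recorded in each group, and the value is the treated-group measurement divided by that of the vehicle-treated control group.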

[1] = dose: 100.0 mg/kg/injection, schedule: Q04DX003 (ip), vehicle: saline with Tween-80
[2] = dose: 200.0 mg/kg/injection, schedule: Q04DX003 (ip), vehicle: saline with Tween-80
[3] = dose: 400.0 mg/kg/injection, schedule: Q04DX003 (ip), vehicle: saline with Tween-80
[4] = dose: 100.0 mg/kg/injection, schedule: Q04DX002 (ip), vehicle: saline with Tween-80
[5] = dose: 50.0 mg/kg/injection, schedule: Q01DX009 (ip), vehicle: Klucel (hydroxypropylcellulose) (HPC)
[6] = dose: 100.0 mg/kg/injection, schedule: Q01DX009 (ip), vehicle: Klucel (hydroxypropylcellulose) (HPC)
[7] = dose: 200.0 mg/kg/injection, schedule: Q01DX009 (ip), vehicle: Klucel (hydroxypropylcellulose) (HPC)
[8] = dose: 25.0 mg/kg/injection, schedule: Q01DX005 (ip), vehicle: Klucel (hydroxypropylcellulose) (HPC)
[9] = dose: 50.0 mg/kg/injection, schedule: Q01DX005 (ip), vehicle: Klucel (hydroxypropylcellulose) (HPC)
[10] = dose: 100.0 mg/kg/injection, schedule: Q01DX005 (ip), vehicle: Klucel (hydroxypropylcellulose) (HPC)
[11] = dose: 200.0 mg/kg/injection, schedule: Q01DX005 (ip), vehicle: Klucel (hydroxypropylcellulose) (HPC)
[12] = dose: 50.0 mg/kg/injection, schedule: Q01DX009 (ip), vehicle: saline with Tween-80
[13] = dose: 100.0 mg/kg/injection, schedule: Q01DX009 (ip), vehicle: saline with Tween-80
[14] = dose: 200.0 mg/kg/injection, schedule: Q01DX009 (ip), vehicle: saline with Tween-80
[15] = dose: 50.0 mg/kg/injection, schedule: Q01DX009 (ip), vehicle: saline

Measured: T/C

O=c1cc(Cc2ccccc2)[nH]c(=S)[nH]1
inactive: [1] 109 % of control | [2] 104 % of control | [3] 100 % of control

CC1C(=O)OC2C1CCC1(C)CCC(O)C(C)C21 (stereo not drawn)
inactive: [4] 102 % of control | dose: 200.0 mg/kg/injection, schedule: Q04DX002 (ip), vehicle: saline with Tween-80 99 % of control | dose: 400.0 mg/kg/injection, schedule: Q04DX002 (ip), vehicle: saline with Tween-80 99 % of control

C/C(=N/NC(=O)c1ccccc1)C(=NO)/C(C)=N\NC(=O)c1ccccc1
inactive: dose: 100.0 mg/kg/injection, schedule: Q01DX001 (ip), vehicle: saline 100 % of control | dose: 200.0 mg/kg/injection, schedule: Q01DX001 (ip), vehicle: saline 97 % of control | dose: 400.0 mg/kg/injection, schedule: Q01DX001 (ip), vehicle: saline 100 % of control

CSc1cccc(NC(=O)OCCOc2ccc(Cl)cc2)c1
inactive: [5] 102 % of control | [6] 100 % of control | [7] 92 % of control

COC(=O)NC1=CCC(C(C)(C)C)CC1 (stereo not drawn)
inactive: [8] 108 % of control | [9] 113 % of control | [10] 106 % of control | [11] 103 % of control

COC(=O)C(Cc1ccccc1C#N)(OC)OC
inactive: dose: 50.0 mg/kg/injection, schedule: Q01DX005 (ip), vehicle: saline with Tween-80 98 % of control | dose: 100.0 mg/kg/injection, schedule: Q01DX005 (ip), vehicle: saline with Tween-80 101 % of control | dose: 200.0 mg/kg/injection, schedule: Q01DX005 (ip), vehicle: saline with Tween-80 98 % of control

O=C(O)CCc1nc(-c2ccccc2)ncc1C(=O)O
inactive: [1] 100 % of control | [2] 100 % of control | [3] 98 % of control

CCCCn1c(Cl)c(/C=N\Nc2ccccc2[N+](=O)[O-])c2ccccc21
inactive: dose: 100.0 mg/kg/injection, schedule: Q01DX001 (ip), vehicle: saline with Tween-80 93 % of control | dose: 200.0 mg/kg/injection, schedule: Q01DX001 (ip), vehicle: saline with Tween-80 90 % of control | dose: 400.0 mg/kg/injection, schedule: Q01DX001 (ip), vehicle: saline with Tween-80 93 % of control

CCOC(=O)CC(N)/C(C)=N\O (stereo not drawn)
inactive: dose: 60.0 mg/kg/injection, schedule: Q01DX005 (ip), vehicle: Klucel + Tween-80 104 % of control | dose: 120.0 mg/kg/injection, schedule: Q01DX005 (ip), vehicle: Klucel + Tween-80 100 % of control | dose: 240.0 mg/kg/injection, schedule: Q01DX005 (ip), vehicle: Klucel + Tween-80 100 % of control

O=C1C=CC(=O)C(C2OC(=O)C(Br)=C2Br)=C1 (stereo not drawn)
inactive: dose: 50.0 mg/kg/injection, schedule: Q01DX005 (ip), vehicle: distilled water + Tween-80 114 % of control | dose: 100.0 mg/kg/injection, schedule: Q01DX005 (ip), vehicle: distilled water + Tween-80 115 % of control

O=C(O)CNO
inactive: [5] 101 % of control | [6] 105 % of control | [7] 104 % of control | dose: 400.0 mg/kg/injection, schedule: Q01DX009 (ip), vehicle: Klucel (hydroxypropylcellulose) (HPC) 110 % of control

CCCCCCC(=O)/C=C/c1ccc(OC)cc1OC
inactive: [12] 94 % of control | [13] 91 % of control | [14] 91 % of control

C=C(C)C1CC2(C)C(C)C(OC(=O)/C(C)=C/C)CCC2C(OC(=O)C=C(C)C)C1=O (stereo not drawn)
inactive: dose: 75.0 mg/kg/injection, schedule: Q04DX002 (ip), vehicle: Klucel (hydroxypropylcellulose) (HPC) 99 % of control | dose: 150.0 mg/kg/injection, schedule: Q04DX002 (ip), vehicle: Klucel (hydroxypropylcellulose) (HPC) 98 % of control | dose: 300.0 mg/kg/injection, schedule: Q04DX002 (ip), vehicle: Klucel (hydroxypropylcellulose) (HPC) 106 % of control

CCOC(=C\C(=O)NC)/C=C/c1ccc([N+](=O)[O-])cc1
inactive: dose: 6.25 mg/kg/injection, schedule: Q01DX005 (ip), vehicle: Klucel (hydroxypropylcellulose) (HPC) 117 % of control | dose: 12.5 mg/kg/injection, schedule: Q01DX005 (ip), vehicle: Klucel (hydroxypropylcellulose) (HPC) 91 % of control | [8] 91 % of control | [9] 86 % of control | [10] 88 % of control

C=CCOc1ccccc1/C(CC)=N/N(C)C
inactive: [15] 111 % of control | dose: 100.0 mg/kg/injection, schedule: Q01DX009 (ip), vehicle: saline 100 % of control

C=C(C)C(=O)OC1c2c(C)coc2C(=O)C2CCCC(C)C21C (stereo not drawn)
inactive: dose: 25.0 mg/kg/injection, schedule: Q01DX009 (ip), vehicle: saline with Tween-80 101 % of control | [12] 98 % of control | [13] 102 % of control | [14] 96 % of control

COc1ccc(S(=O)(=O)N/N=C/C(=O)OCOC(=O)C(C)(C)C)cc1
inactive: dose: 5.0 mg/kg/injection, schedule: Q01DX005 (ip), vehicle: other 111 % of control | dose: 5.0 mg/kg/injection, schedule: Q01DX005 (ip), vehicle: saline + Tween-80 + alcohol 116 % of control | dose: 10.0 mg/kg/injection, schedule: Q01DX005 (ip), vehicle: saline + Tween-80 + alcohol 111 % of control | dose: 12.5 mg/kg/injection, schedule: Q01DX005 (ip), vehicle: saline + Tween-80 + alcohol 119 % of control | dose: 25.0 mg/kg/injection, schedule: Q01DX005 (ip), vehicle: saline + Tween-80 + alcohol 111 % of control

O=C1/C(=C/c2ccncc2)CCCc2ccccc21
inactive: dose: 60.0 mg/kg/injection, schedule: Q01DX005 (ip), vehicle: Klucel (hydroxypropylcellulose) (HPC) 102 % of control | dose: 120.0 mg/kg/injection, schedule: Q01DX005 (ip), vehicle: Klucel (hydroxypropylcellulose) (HPC) 104 % of control

Nc1ccc(C(OC(=O)c2cc3ccccc3c(Cc3c(O)c(C(=O)OC(c4ccc(N)cc4)(c4ccc(N)cc4)c4ccc(N)cc4)cc4ccccc34)c2O)(c2ccc(N)cc2)c2ccc(N)cc2)cc1
inactive: dose: 6.25 mg/kg/injection, schedule: Q01DX009 (ip), vehicle: saline with Tween-80 117 % of control

CC(C)c1c2ccccc2nn1-c1ccccc1
inactive: [1] 97 % of control | [2] 89 % of control | [3] 91 % of control

NC(CCC(N)C(=O)O)C(=O)O (stereo not drawn)
inactive: dose: 25.0 mg/kg/injection, schedule: Q01DX009 (ip), vehicle: Klucel (hydroxypropylcellulose) (HPC) 97 % of control | [5] 93 % of control | [6] 87 % of control | [7] 86 % of control

O=P(c1ccccc1)(c1ccccc1)C(O)c1cccs1 (stereo not drawn)
inactive: [5] 90 % of control | [6] 88 % of control | [7] 92 % of control

N#Cc1ncc(C(Cl)Cl)nc1Cl
inactive: dose: 25.0 mg/kg/injection, schedule: Q01DX009 (ip), vehicle: saline 108 % of control | [15] 106 % of control

COc1cc2c(c(OC)c1OC)-c1ccc(SC)c(=O)cc1C(N(C)C(=O)C(F)(F)F)CC2 (stereo not drawn)
inactive: dose: 1.25 mg/kg/injection, schedule: Q01DX009 (ip), vehicle: Klucel (hydroxypropylcellulose) (HPC) 109 % of control | dose: 2.5 mg/kg/injection, schedule: Q01DX009 (ip), vehicle: Klucel (hydroxypropylcellulose) (HPC) 111 % of control and 122 % of control | dose: 20.0 mg/kg/injection, schedule: Q01DX009 (ip), vehicle: Klucel (hydroxypropylcellulose) (HPC) 89 % of control

S=C1SSC(=S)C1=C1C=CN(Cc2ccccc2)C=C1
inactive: dose: 25.0 mg/kg/injection, schedule: Q04DX002 (ip), vehicle: saline with Tween-80 102 % of control | dose: 50.0 mg/kg/injection, schedule: Q04DX002 (ip), vehicle: saline with Tween-80 99 % of control | [4] 100 % of control

CC(NC(=O)OCc1ccccc1)C(=O)NC(CO)C(N)=O (stereo not drawn) (Cbz-Ala-Ser-NH2; configuration not given here)
inactive: [9] 97 % of control | [10] 98 % of control | [11] 102 % of control

CC(C)OC(=S)NC(=O)c1ccccc1
inactive: [12] 109 % of control | [13] 100 % of control | [14] 103 % of control | dose: 400.0 mg/kg/injection, schedule: Q01DX009 (ip), vehicle: saline with Tween-80 108 % of control

COC=C=CC(C)(C)OC
inactive: [8] 102 % of control and 110 % of control | [9] 103 % of control and 91 % of control and 95 % of control | [10] 103 % of control and 112 % of control and 121 % of control | [11] 100 % of control and 103 % of control and 114 % of control
